Columns and labels:
Human SGLT2 (hSGLT2) = Human SGLT2 (hSGLT2) (Homo sapiens (Human), UniProt P31639); assay: Inhibitory effects on human SGLT2 activities (14C-AMG uptake, sodium-dependent glucose transport assay); format: cell-based; conditions: hSGLT2-expressing CHO cells, 37° C. for 2 h, single determinations
Method in brief: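 CHO cells stably expressing hSGLT2 were preincubated 10 min at 37 °C in choline (Na+-free) buffer, then exposed 2 h at 37 °C to compound in Na+ uptake buffer with 8 μM 14C-AMG and 1 mM unlabeled AMG. Radioactivity was scintillation counted; IC50 came from nonlinear regression.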

Human SGLT1 (hSGLT1) = Human SGLT1 (hSGLT1) (Homo sapiens (Human), UniProt P13866); assay: Inhibitory effects on human SGLT1 activities (14C-AMG uptake, sodium-dependent glucose transport assay); format: cell-based; conditions: 37° C. for 2 h, single determinations
Human SGLT1 (hSGLT1), sequence (P13866 whole entry): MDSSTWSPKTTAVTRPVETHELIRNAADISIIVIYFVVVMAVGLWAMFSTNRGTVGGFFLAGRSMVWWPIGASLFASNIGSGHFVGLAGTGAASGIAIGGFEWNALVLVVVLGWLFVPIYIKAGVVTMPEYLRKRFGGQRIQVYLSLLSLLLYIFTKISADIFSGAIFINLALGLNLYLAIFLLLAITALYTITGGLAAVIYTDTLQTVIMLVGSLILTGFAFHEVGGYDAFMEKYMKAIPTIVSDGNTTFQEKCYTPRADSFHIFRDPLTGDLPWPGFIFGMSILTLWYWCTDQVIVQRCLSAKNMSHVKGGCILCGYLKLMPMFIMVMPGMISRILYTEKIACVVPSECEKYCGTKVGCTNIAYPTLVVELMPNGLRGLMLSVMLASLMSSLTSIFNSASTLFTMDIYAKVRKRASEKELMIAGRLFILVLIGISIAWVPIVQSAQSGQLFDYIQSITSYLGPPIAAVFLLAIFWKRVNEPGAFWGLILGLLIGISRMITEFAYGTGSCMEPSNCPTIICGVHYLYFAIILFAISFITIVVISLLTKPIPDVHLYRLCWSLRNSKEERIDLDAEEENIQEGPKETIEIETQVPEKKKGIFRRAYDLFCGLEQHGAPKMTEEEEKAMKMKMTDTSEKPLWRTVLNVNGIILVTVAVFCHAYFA

Human SGLT2 (hSGLT2), sequence (P31639 whole entry): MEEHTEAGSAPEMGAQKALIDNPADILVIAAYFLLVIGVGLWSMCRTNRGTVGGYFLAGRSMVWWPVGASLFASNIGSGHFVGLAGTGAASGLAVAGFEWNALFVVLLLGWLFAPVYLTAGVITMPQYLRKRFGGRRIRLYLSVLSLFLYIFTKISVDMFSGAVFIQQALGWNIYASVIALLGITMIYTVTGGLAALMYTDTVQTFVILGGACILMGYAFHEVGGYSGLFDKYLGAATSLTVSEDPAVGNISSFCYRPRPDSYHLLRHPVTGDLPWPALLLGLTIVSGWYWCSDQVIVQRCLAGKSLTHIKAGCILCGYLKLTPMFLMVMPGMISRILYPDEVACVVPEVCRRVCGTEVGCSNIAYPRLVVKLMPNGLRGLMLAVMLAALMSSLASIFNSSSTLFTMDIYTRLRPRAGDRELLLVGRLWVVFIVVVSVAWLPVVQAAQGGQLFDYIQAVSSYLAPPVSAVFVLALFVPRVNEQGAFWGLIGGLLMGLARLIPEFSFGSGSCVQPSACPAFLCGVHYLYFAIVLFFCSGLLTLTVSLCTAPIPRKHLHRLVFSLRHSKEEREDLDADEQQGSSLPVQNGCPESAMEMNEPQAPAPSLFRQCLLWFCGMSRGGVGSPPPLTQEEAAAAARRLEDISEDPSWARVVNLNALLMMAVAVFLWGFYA

| IC50 (Human SGLT2 (hSGLT2)) | IC50 (Human SGLT1 (hSGLT1)) | Structure (SMILES) |
| --- | --- | --- |
| 1.6 nM | 66.2 nM | COc1ccc(Cc2cc([C@@H]3O[C@H](CO)[C@@H](O)[C@H](O)[C@H]3O)c3c(c2C)OCO3)cc1 [Compound E063, (2R,3S,4R,5R,6S)-2-(Hydroxymethyl)-6-(6-(4-methoxybenzyl)-7-methylbenzo[d][1,3]dioxol-4-yl)tetrahydro-2H-pyran-3,4,5-triol] |
| 1.1 nM | 38.3 nM | CCc1ccc(Cc2cc([C@@H]3O[C@H](CO)[C@@H](O)[C@H](O)[C@H]3O)c3c(c2C)OCO3)cc1 [Compound E064, (2S,3R,4R,5S,6R)-2-(6-(4-Ethylbenzyl)-7-methylbenzo[d][1,3]dioxol-4-yl)-6-(hydroxymethyl)tetrahydro-2H-pyran-3,4,5-triol] |
| 1.6 nM | 155 nM | CCOc1ccc(Cc2cc([C@@H]3O[C@H](CO)[C@@H](O)[C@H](O)[C@H]3O)c3c(c2C)OCO3)cc1 [Compound E065, (2S,3R,4R,5S,6R)-2-(6-(4-Ethoxybenzyl)-7-methylbenzo[d][1,3]dioxol-4-yl)-6-(hydroxymethyl)tetrahydro-2H-pyran-3,4,5-triol] |
